Reference: patent US20060116390A1, “Hepatitis c virus inhibitors” (priority 2003, published 2006)
Read-outs that look alike come from different tables or passages of the source.

System: HCV proteins in Rep5.1 cells (replicon cell line)
Experiment: Inhibitory activity of HCV: cell-based ELISA in replicon cell line Rep5.1 (decrease of HCV proteins)
Set-up: species or system hepatitis C virus
Settings: Hepatitis C virus, 72 h, Rep5.1 cells, 72 hours with drug
Protocol: In order to, screen and evaluate the anti-HCV therapeutic agents in cell level, the following experiments are carried out using a replicon cell line, Rep5.1 [Lohmann, et al., Replication of subgenomic hepatitis C virus RNAs in a hepatoma cell line. Science 285:110-113 (1999)].
Rep5.1 cells, the replicon cell line, are cultured in DMEM-10 containing 500 μg/ml of G418. The Rep5.1 cells in log phase are suspended by trypsin treatment, and 5000 cells are distributed to each well of a 96-well plate. After 4 hours when the cells are attached to the plate, the serially diluted drug is added to each well. After 48 hours, a part of the treated cells are observed by microscope, and MTT assay is carried out to evaluate the drug toxicity. The cytotoxicity is estimated in percentage based on the control containing no drug. After 72 hours, the remaining cells are fixed by methanol/acetone (50/50, v/v), and the decrease of HCV proteins is measured by using HCV antibody. The extent of decrease is estimated in percentage based on the control containing no drug, and the concentration of drug at which 50% of proteins is decreased is determined to be IC50. The compounds showing activity via this procedure are validated by Western blotting. In order to find out whether the decrease of HCV protein is related to the decrease of replicon RNA, Rep5.1 cell is treated with some selected drugs for 72 hours, RNA is purified, dot blotted, and hybridized with isotope labelled nucleic acid to determine the amounts of actin mRNA and replicon RNA, and finally the amount of RNA is compared.
Plasma samples from 300 persons positive to the hepatitis C antibody test were screened by antibody diagnosis kit produced by LG life Sciences Ltd. (LG HCD3.0 TMB) to select 40 plasma samples having high titer. Replicon cell line and Huh-7 cell line each were cultured in a 96-well cell culture plate, fixed by methanol/acetone (1:1) mixture, and blocked by 3% skimmed milk. The 40 plasma sanples selected above were 100-fold diluted and aided thereto, and the bound antibodies were probed by anti-Human goat antibody (Sigma) to which Horse Radish Peroxidase is attached. As a result, 12 plasma samples having low specificity to Huh-7 cell line, but high specificity to replicon cell line were obtained. These plasma samples were used in the following cell-based ELISA.
Rep5.1 cells were cultured in DMEM-10 containing 500 μg/ml of G418. The Rep5.1 cells in log phase were suspended by trypsin treatment, and 5000 cells were distributed to each well of a 96-well pate. After 4 hours for which the cells were attached to the plate, the serially diluted drug was added to each well. After 72 hours, the cells were fixed by methanol/acetone (50/50, v/v), and the decrease of HCV proteins was measured by using HCV antibody obtained as above. The extent of decrease was estimated in percentage based on the control containing no drug, and the concentration of drug at which 50% of proteins was decreased was determined to be IC50.

[1] = concentration at which 50% of HCV proteins was decreased, Table 2, read-out: IC50
[2] = decrease of HCV proteins measured by HCV antibody, Table 1, read-out: Level (IC50 values classified)

Row | Structure (SMILES) | IC50 [1] [µM] | IC50 [2] [µM]
1 | CC1=C(C(=O)OCCc2ccsc2)C2(CCC2)NC(=S)N1 [7′, 8-methyl-6-thioxo-5,7-diaza-spiro[3,5]non-8-en-9-carboxylic acid 2-thiophen-3-yl-ethyl ester] | 8 | 1 to 10
2 | CC1=C(C(=O)OCCc2ccc(N(C)C)cc2)CNC(=S)N1 [Compound 95, 6-methyl-2-thioxo-1,2,3,4-tetrahydro-pyrimidine-5-carboxylic acid 2-(4-dimethylamino-phenyl)-ethyl ester] | 0.7 | < 1
3 | CC1=C(C(=O)OCCc2ccsc2)[C@@H](CF)NC(=S)N1 [25′, (S)-4-fluoromethyl-6-methyl-2-thioxo-1,2,3,4-tetrahydro-pyrimidine-5-carboxylic acid 2-thiophen-3-yl-ethyl ester] | 4.9 | 1 to 10
4 | CCc1ccc(COC(=O)C2=C(C)NC(=S)NC2)cc1 [Compound 152, 6-methyl-2-thioxo-1,2,3,4-tetrahydro-pyrimidine-5-carboxylic acid 4-ethyl-benzyl ester] | 0.5 | < 1
5 | CC1=C(C(=O)OCc2ccc(-c3cnc(C)s3)s2)CNC(=S)N1 [Compound 221, 6-methyl-2-thioxo-1,2,3,4-tetrahydro-pyrimidine-5-carboxylic acid 5-(2-methyl-thiazol-5-yl)-thiophen-2-ylmethyl ester] | 2.5 | 1 to 10
6 | CC1=C(C(=O)OCc2ccc(S(C)(=O)=O)cc2)CNC(=S)N1 [Compound 74, 6-methyl-2-thioxo-1,2,3,4-tetrahydro-pyrimidine-5-carboxylic acid 4-methanesulfonyl-benzyl ester] | > 100 | > 20
7 | CC1=C(C(=O)OCc2ccccc2[N+](=O)[O-])CNC(=S)N1 [Compound 183, 6-methyl-2-thioxo-1,2,3,4-tetrahydro-pyrimidine-5-carboxylic acid 2-nitro-benzyl ester] | 2.5 | 1 to 10
8 | CC1=C(C(=O)OCCc2ccc(Cl)c(Cl)c2)C(CO)NC(=S)N1 (centres unmarked) [42″, 4-hydroxymethyl-6-methyl-2-thioxo-1,2,3,4-tetrahydro-pyrimidine-5-carboxylic acid 2-(3,4-dichloro-phenyl)-ethyl ester] | < 0.4 | < 1
9 | CC1=C(C(=O)OCCc2ccoc2)CNC(=S)N1 [Compound 254, 6-methyl-2-thioxo-1,2,3,4-tetrahydro-pyrimidine-5-carboxylic acid 2-furan-3-yl-ethyl ester] | 3 | 1 to 10
10 | CC1=C(C(=O)OCc2cc(Cl)cc(Cl)c2)C(CO)NC(=S)N1 (centres unmarked) [34″, 4-hydroxymethyl-6-methyl-2-thioxo-1,2,3,4-tetrahydro-pyrimidine-5-carboxylic acid 3,5-dichloro-benzyl ester] | 2.6 | 1 to 10
11 | CC1=C(C(=O)OCCc2ccsc2Br)C(CO)NC(=S)N1 (centres unmarked) [10″, 4-hydroxymethyl-6-methyl-2-thioxo-1,2,3,4-tetrahydro-pyrimidine-5-carboxylic acid 2-(2-bromo-thiophen-3-yl)-ethyl ester] | 7 | 1 to 10
12 | CC1=C(C(=O)OCCCc2cc3ccccc3s2)C(CF)NC(=S)N1 (centres unmarked) [58′, 4-fluoromethyl-6-methyl-2-thioxo-1,2,3,4-tetrahydro-pyrimidine-5-carboxylic acid 3-benzo[b]thiophen-2-yl-propyl ester] | 8 | 1 to 10
13 | O=C(OCCc1ccsc1)C1=C(CO)NC(=S)NC1 [67′, 6-hydroxymethyl-2-thioxo-1,2,3,4-tetrahydro-pyrimidine-5-carboxylic acid 2-thiophen-3-yl-ethyl ester] | > 100 | > 20
14 | CC1=C(C(=O)OCC2CCCC2)CNC(=S)N1 [Compound 68, 6-methyl-2-thioxo-1,2,3,4-tetrahydro-pyrimidine-5-carboxylic acid cyclopentylmethyl ester] | 0.7 | < 1
15 | CC1=C(C(=O)OCc2ccc(Cl)cc2)C(CF)NC(=S)N1 (centres unmarked) [34′, 4-fluoromethyl-6-methyl-2-thioxo-1,2,3,4-tetrahydro-pyrimidine-5-carboxylic acid 4-chloro-benzyl ester] | 0.7 | < 1
16 | CC1=C(C(=O)OCCc2cc(F)cc(F)c2)C(CF)NC(=S)N1 (centres unmarked) [85′, 4-fluoromethyl-6-methyl-2-thioxo-1,2,3,4-tetrahydro-pyrimidine-5-carboxylic acid 2-(3,5-difluoro-phenyl)-ethyl ester] | 2.7 | 1 to 10
17 | COc1c(C)cc(COC(=O)C2=C(C)NC(=S)NC2)cc1C [Compound 180, 6-methyl-2-thioxo-1,2,3,4-tetrahydro-pyrimidine-5-carboxylic acid 4-methoxy-3,5-dimethyl-benzyl ester] | 0.8 | < 1
18 | O=C(OCc1ccccc1)C1=C(c2cccc3ccccc23)NC(=S)NC1 [Compound 17, 6-naphthalen-1-yl-2-thioxo-1,2,3,4-tetrahydro-pyrimidine-5-carboxylic acid benzyl ester] | 100 | > 20
19 | CC1=C(C(=O)OCCc2sccc2C)CNC(=S)N1 [Compound 257, 6-methyl-2-thioxo-1,2,3,4-tetrahydro-pyrimidine-5-carboxylic acid 2-(3-methyl-thiophen-2-yl)-ethyl ester] | < 0.4 | < 1
20 | CC1=C(C(=O)OCc2cccc([N+](=O)[O-])c2)CNC(=S)N1 [Compound 77, 6-methyl-2-thioxo-1,2,3,4-tetrahydro-pyrimidine-5-carboxylic acid 3-nitro-benzyl ester] | 2.3 | 1 to 10
21 | CC1=C(C(=O)OCc2cccc(C(F)(F)F)c2)C(CO)NC(=S)N1 (centres unmarked) [51″, 4-hydroxymethyl-6-methyl-2-thioxo-1,2,3,4-tetrahydro-pyrimidine-5-carboxylic acid 3-trifluoromethyl-benzyl ester] | 2.3 | 1 to 10
22 | CC1=C(C(=O)OCCc2ccc(C)c(F)c2)C(CO)NC(=S)N1 (centres unmarked) [55″, 4-hydroxymethyl-6-methyl-2-thioxo-1,2,3,4-tetrahydro-pyrimidine-5-carboxylic acid 2-(3-fluoro-4-methyl-phenyl)-ethyl ester] | 0.5 | < 1
23 | CC1=C(C(=O)OCc2sc3sc(C)nc3c2C)CNC(=S)N1 [Compound 216, 6-methyl-2-thioxo-1,2,3,4-tetrahydro-pyrimidine-5-carboxylic acid 2,6-dimethyl-thieno[3,2-d]thiazol-5-ylmethyl ester] | 5 | 1 to 10
24 | CC1=C(C(=O)OCC2CC=CCC2)C(CF)NC(=S)N1 (centres unmarked) [44′, 4-fluoromethyl-6-methyl-2-thioxo-1,2,3,4-tetrahydro-pyrimidine-5-carboxylic acid cyclohex-3-enylmethyl ester] | 2.8 | 1 to 10
25 | CC1=C(C(=O)OCc2ccc(-c3ccc([N+](=O)[O-])cc3)o2)CNC(=S)N1 [Compound 128, 6-methyl-2-thioxo-1,2,3,4-tetrahydro-pyrimidine-5-carboxylic acid 5-(4-nitro-phenyl)-furan-2-ylmethyl ester] | 1 | < 1
26 | CC1=C(C(=O)OCc2ccc(C(F)(F)F)cc2)CNC(=S)N1 [Compound 114, 6-methyl-2-thioxo-1,2,3,4-tetrahydro-pyrimidine-5-carboxylic acid 4-trifluoromethyl-benzyl ester] | < 0.4 | < 1
27 | CC1=C(C(=O)OCCCc2ccsc2)C(CS(=O)(=O)C(C)(C)C)NC(=S)N1 (centres unmarked) [68′, 6-methyl-4-(2-methyl-propane-2-sulfonylmethyl)-2-thioxo-1,2,3,4-tetrahydro-pyrimidine-5-carboxylic acid 3-thiophen-3-yl-propyl ester] | > 100 | > 20
28 | CC1=C(C(=O)OCCS(=O)(=O)c2ccc(C)cc2)CNC(=S)N1 [Compound 201, 6-methyl-2-thioxo-1,2,3,4-tetrahydro-pyrimidine-5-carboxylic acid 2-(toluene-4-sulfonyl)-ethyl ester] | 13 | 10 to 20
